Results from US20230114405A1, “Microemulsion Delivery Systems for A Female Hormone Blend with Alcohol-Soluble Species Including Nonderivatized Hormones” (Quicksilver Scientific, Inc., priority 2019, published 2023).

Key:
[1] = Formation of visually clear, shelf-stable MOIW microemulsions with phospholipid and polyethylene glycol derivative; format: physicochemical; details: used in conjunction with the phospholipid
Description: A shelf-stable microemulsion may be determined in one of two ways. […] Either type of dissociation means that the microemulsion is not shelf-stable.
A visually clear microemulsion has an average particle diameter of 200 nm and less and lacks precipitated solid crystals visible to the naked eye.

[2] = Solubility of DHEA in ethanol and MCT oil; format: physicochemical
Description: An alcohol-soluble species is a species that is insoluble in water and has a greater solubility in ethanol than in medium chain triglyceride (MCT) oils. […] Alcohol-soluble species are preferably pharmacologically active, more preferably are a drug or a supplement, and neither include nor are water. Thus, liquids and solids may exist that technically are soluble in alcohol, but because they also are soluble in water or more or equivalently soluble in MCT oils than in ethanol are not “alcohol-soluble species”.
Solubilized means that the alcohol-soluble species to be delivered is in the solution of the droplet. […] Thus, if either average particle diameters greater than 200 nm or precipitated crystals visible to the naked eye form, the alcohol-soluble species is not solubilized in the solution of the droplet. If an alcohol-soluble species is not solubilized in the solution, it is insoluble in the solution. In many respects, solubility may be thought of as a concentration dependent continuum. For example, the following descriptive terms may be used to express solubility of a solute in a solvent (grams solid/mL of solvent) at 25 degrees Celsius: […]

Molecule	phospholipid to polyethylene glycol derivative ratios resulting in visually clear, shelf-stable microemulsions [1]	descriptive solubility level in MCT oil ([2]; MCT oil)	solubility in MCT oil ([2]; MCT oil)	descriptive solubility level in ethanol ([2]; ethanol)	solubility in ethanol ([2]; ethanol)
polysorbate 20	did not form visually clear, shelf-stable microemulsions	–	–	–	–
C[C@]12CC[C@H](O)CC1=CC[C@@H]1[C@@H]2CC[C@]2(C)C(=O)CC[C@@H]12 [DHEA, dehydroepiandrosterone (3-beta-hydroxyandrosteron-5-en-17-one)]	–	sparingly soluble	approximately 10 mg/mL	freely soluble	approximately 150 mg/mL
